{
  "source": "patent US12285012B2",
  "about": "“Compositions comprising pyridine carboxylate herbicides with acetolactate synthase (ALS) inhibitor herbicides” (Corteva Agriscience LLC, priority 2018, dated 2025)",
  "key": {"[1]": {"test_system": "common lambsquarters (CHEAL, Chenopodium album L.)", "test": "Greenhouse postemergence herbicidal effect", "type": "in vivo", "procedure": "(§1) Seeds of the desired test plant species were planted in a 90:10% v/v (volume/volume) mixture of PRO-MIX® BX (Premier Tech Horticulture, Quakertown, PA, USA) and PROFILE® GREENS GRADE™ (Profile Products LLC, Buffalo Grove, IL, USA) planting mixture, which typically has a pH of 5.2 to 6.2 and an organic matter content of at least 50 percent, in plastic pots with a surface area of 103.2 square centimeters (cm^2). […] The plants were grown for 7-36 days (d) in a greenhouse with an approximate 14-hour (h) photo-period which was maintained at about 23° C. during the day and 22° C. during the night. Nutrients and water were added on a regular basis and supplemental lighting was provided with overhead metal halide 1000-Watt lamps as necessary. The plants were employed for testing when they reached the second or third true leaf stage.\n(§2) Emulsifiable concentrates of each of each pyridine carboxylate herbicide (Compound A or Compound B) were prepared at 100 grams acid equivalent per liter (g ae/L). The emulsifiable concentrates also included a safener, cloquintocet-mexyl, at 120 grams active ingredient per liter (g ai/L), unless otherwise noted below. An aliquot of each emulsifiable concentrate was placed in a 25 mL glass vial and diluted with an aqueous mixture of 1.25% (v/v) ACTIROB® B esterified rapeseed oil (Bayer Crop Science, Research Triangle Park, NC, USA) or MSO® Concentrate with LECI-TECH® methylated soybean oil (Loveland Products, Loveland, CO, USA) to obtain concentrated stock solutions at the highest application rate for each herbicide, based upon a 12 milliliter (mL) application volume at a rate of 187 liters per hectare (L/ha). The concentrated stock solutions were further diluted with an aqueous mixture of 1.25% v/v ACTIROB® B or MSO® Concentrate with LECI-TECH® to obtain stock solutions at reduced application rates for each herbicide. Spray solutions of the herbicide combinations (Compound A or Compound B plus ALS herbicide) were prepared by adding weighed amounts or aliquots of the ALS herbicides to the stock solutions of Compound A or Compound B to form 12-mL spray solutions in two- or three-way combinations.\n(§3) The spray solutions were applied to the plant material with an overhead Mandel track sprayer equipped with 8002E nozzles calibrated to deliver 187 L/ha over an application area of 0.503 square meters (m^2) at a spray height of 18 inches (43 centimeters (cm)) above the average plant canopy. Control plants were sprayed in the same manner with the solvent blank. All pyridine carboxylate herbicide (component a) application rates are given as “g ae/ha” and all ALS inhibitor (component b) application rates are given as “g ai/ha.”\n(§4) The treated plants and control plants were placed in a greenhouse as described above and watered by sub-irrigation to prevent wash-off of the test compounds. After 20-22 d, the condition of the test plants as compared with that of the control plants was determined visually and scored on a scale of 0 to 100 percent where 0 corresponds to no injury and 100 corresponds to complete kill."}, "[2]": {"test_system": "kochia (KCHSC, Kochia scoparia)", "test": "Greenhouse postemergence herbicidal effect", "type": "in vivo", "conditions": "for % visual injury, Obs: KCHSC", "procedure": "as §1, §2, §3, §4"}, "[3]": {"test_system": "Canadian thistle (CIRAR, Cirsium arvense)", "test": "Greenhouse postemergence herbicidal effect", "type": "in vivo", "conditions": "for % visual injury, Obs: CIRAR", "procedure": "(§5) The plants were grown for 7-36 days (d) in a greenhouse with an approximate 14-hour (h) photo-period which was maintained at about 23° C. during the day and 22° C. during the night. Nutrients and water were added on a regular basis and supplemental lighting was provided with overhead metal halide 1000-Watt lamps as necessary. The plants were employed for testing when they reached the second or third true leaf stage.\n(§6) The emulsifiable concentrates also included a safener, cloquintocet-mexyl, at 120 grams active ingredient per liter (g ai/L), unless otherwise noted below.\n(§7) Control plants were sprayed in the same manner with the solvent blank. All pyridine carboxylate herbicide (component a) application rates are given as “g ae/ha” and all ALS inhibitor (component b) application rates are given as “g ai/ha.”\nas §4"}, "[4]": {"test_system": "wild chamomile (MATCH, Matricaria chamomilla)", "test": "Greenhouse postemergence herbicidal effect", "type": "in vivo", "procedure": "as §5, §6, §7, §4"}, "[5]": {"test_system": "Russian thistle (SASKR, Salsola kali)", "test": "Greenhouse postemergence herbicidal effect", "type": "in vivo", "procedure": "as §5, §6, §7, §4"}, "[6]": {"test_system": "winter rape (BRSNW, Brassica napus)", "test": "Greenhouse postemergence herbicidal effect", "type": "in vivo", "conditions": "for % visual injury, Obs: BRSNW", "procedure": "as §5, §6, §7, §4"}, "[7]": {"test_system": "wild mustard (SINAR, Sinapis arvensis)", "test": "Greenhouse postemergence herbicidal effect", "type": "in vivo", "conditions": "for % visual injury, Obs: SINAR", "procedure": "as §5, §6, §7, §4"}, "[8]": {"test_system": "pigweed (AMARE, Amaranthus retroflexus)", "test": "Greenhouse postemergence herbicidal effect", "type": "in vivo", "conditions": "for % visual injury, Obs: AMARE", "procedure": "as §5, §6, §7, §4"}, "[9]": {"test_system": "wild buckwheat (POLCO, Polygonum convolvulus)", "test": "Greenhouse postemergence herbicidal effect", "type": "in vivo", "procedure": "as §5, §6, §7, §4"}, "[10]": {"test_system": "spring barley (HORVS)", "type": "in vivo, Hordeum vulgare", "conditions": "HORVS; Iodosulfuron 33.75 g/ha", "procedure": "as §5, §6, §7, §4"}, "[11]": {"test_system": "spring wheat (TRZAS)", "type": "in vivo, Triticum aestivum", "conditions": "TRZAS; Iodosulfuron 33.75 g/ha", "procedure": "as §5, §6, §7, §4"}},
  "data": [
    {"compound": "CCc1cnc(C2=NC(C)(C(C)C)C(=O)N2)c(C(=O)O)c1", "note": "(centres unmarked) [Imazethapyr, imazethapyr]", "values": [
      {"measurement": "% visual injury, Obs", "setting": "[1]; 35 g/ha", "value": 28, "unit": "%"},
      {"measurement": "pest or weed control at 35 g/ha", "setting": "[2]; Bassia scoparia, post-emergence, 35 g/ha, read-out: % visual injury, Obs", "value": 53, "unit": "%"},
      {"measurement": "pest or weed control at 35 g/ha", "setting": "[3]; Cirsium arvense, post-emergence, 35 g/ha, read-out: % visual injury, Obs", "value": 40, "unit": "%"},
      {"measurement": "% visual injury, Obs", "setting": "[4]; 35 g/ha", "value": 18, "unit": "%"},
      {"measurement": "% visual injury, Obs", "setting": "[5]; 35 g/ha", "value": 40, "unit": "%"}
    ]},
    {"compound": "COc1nc(C)nc(NC(=O)NS(=O)(=O)c2ccccc2C(=O)O)n1", "note": "[Metsulfuron, metsulfuron]", "values": [
      {"measurement": "% visual injury, Obs", "setting": "[1]; CHEAL, Metsulfuron 3 g/ha", "value": 98, "unit": "%"},
      {"measurement": "% visual injury, Obs", "setting": "[2]; Metsulfuron 3 g/ha", "value": 75, "unit": "%"},
      {"measurement": "% visual injury, Obs", "setting": "[3]; Metsulfuron 3 g/ha", "value": 85, "unit": "%"},
      {"measurement": "% visual injury, Obs", "setting": "[6]; Metsulfuron 3 g/ha", "value": 90, "unit": "%"},
      {"measurement": "% visual injury, Obs", "setting": "[7]; Metsulfuron 3 g/ha", "value": 88, "unit": "%"},
      {"measurement": "% visual injury, Obs", "setting": "[4]; MATCH, Metsulfuron 3 g/ha", "value": 96, "unit": "%"},
      {"measurement": "% visual injury, Obs", "setting": "[8]; Metsulfuron 3 g/ha", "value": 100, "unit": "%"},
      {"measurement": "% visual injury, Obs", "setting": "[9]; POLCO, Metsulfuron 3 g/ha", "value": 85, "unit": "%"}
    ]},
    {"compound": "COc1nc(C)nc(N(C)C(=O)NS(=O)(=O)c2ccccc2C(=O)O)n1", "note": "[Tribenuron, tribenuron]", "values": [
      {"measurement": "% visual injury, Obs", "setting": "[1]; CHEAL, Tribenuron 15 g/ha", "value": 96, "unit": "%"},
      {"measurement": "% visual injury, Obs", "setting": "[2]; Tribenuron 15 g/ha", "value": 50, "unit": "%"},
      {"measurement": "% visual injury, Obs", "setting": "[3]; Tribenuron 15 g/ha", "value": 89, "unit": "%"},
      {"measurement": "% visual injury, Obs", "setting": "[6]; Tribenuron 15 g/ha", "value": 99, "unit": "%"},
      {"measurement": "% visual injury, Obs", "setting": "[7]; Tribenuron 15 g/ha", "value": 95, "unit": "%"},
      {"measurement": "% visual injury, Obs", "setting": "[4]; MATCH, Tribenuron 15 g/ha", "value": 87, "unit": "%"},
      {"measurement": "% visual injury, Obs", "setting": "[8]; Tribenuron 15 g/ha", "value": 100, "unit": "%"},
      {"measurement": "% visual injury, Obs", "setting": "[9]; POLCO, Tribenuron 15 g/ha", "value": 78, "unit": "%"}
    ]},
    {"compound": "iodosulfuron", "values": [
      {"measurement": "% visual injury, Obs", "setting": "[10]", "value": 0, "unit": "%"},
      {"measurement": "% visual injury, Obs", "setting": "[1]; CHEAL, Iodosulfuron 33.75 g/ha", "value": 90, "unit": "%"},
      {"measurement": "% visual injury, Obs", "setting": "[2]; Iodosulfuron 33.75 g/ha", "value": 70, "unit": "%"},
      {"measurement": "% visual injury, Obs", "setting": "[11]", "value": 0, "unit": "%"},
      {"measurement": "% visual injury, Obs", "setting": "[3]; Iodosulfuron 33.75 g/ha", "value": 85, "unit": "%"},
      {"measurement": "% visual injury, Obs", "setting": "[6]; Iodosulfuron 33.75 g/ha", "value": 98, "unit": "%"},
      {"measurement": "% visual injury, Obs", "setting": "[7]; Iodosulfuron 33.75 g/ha", "value": 100, "unit": "%"},
      {"measurement": "% visual injury, Obs", "setting": "[4]; MATCH, Iodosulfuron 33.75 g/ha", "value": 85, "unit": "%"},
      {"measurement": "% visual injury, Obs", "setting": "[8]; Iodosulfuron 33.75 g/ha", "value": 98, "unit": "%"},
      {"measurement": "% visual injury, Obs", "setting": "[9]; POLCO, Iodosulfuron 33.75 g/ha", "value": 85, "unit": "%"}
    ]},
    {"compound": "mesosulfuron", "values": [
      {"measurement": "% visual injury, Obs", "setting": "[1]; CHEAL, Mesosulfuron 9 g/ha", "value": 48, "unit": "%"},
      {"measurement": "% visual injury", "setting": "[1]; Mesosulfuron 3 g/ha", "value": 30, "unit": "%"},
      {"measurement": "% visual injury, Obs", "setting": "[2]; Mesosulfuron 9 g/ha", "value": 13, "unit": "%"},
      {"measurement": "% visual injury", "setting": "[2]; Mesosulfuron 3 g/ha", "value": 0, "unit": "%"},
      {"measurement": "% visual injury, Obs", "setting": "[3]; Mesosulfuron 9 g/ha", "value": 73, "unit": "%"},
      {"measurement": "% visual injury", "setting": "[3]; Mesosulfuron 3 g/ha", "value": 78, "unit": "%"},
      {"measurement": "% visual injury, Obs", "setting": "[6]; Mesosulfuron 9 g/ha", "value": 95, "unit": "%"},
      {"measurement": "% visual injury", "setting": "[6]; Mesosulfuron 3 g/ha", "value": 100, "unit": "%"},
      {"measurement": "% visual injury", "setting": "[7]; Mesosulfuron 3 g/ha", "value": 98, "unit": "%"},
      {"measurement": "% visual injury, Obs", "setting": "[7]; Mesosulfuron 9 g/ha", "value": 94, "unit": "%"},
      {"measurement": "Obs % visual injury", "setting": "[4]; MATCH, Mesosulfuron 3 g/ha", "value": 10, "unit": "%"},
      {"measurement": "% visual injury, Obs", "setting": "[4]; MATCH, Mesosulfuron 9 g/ha", "value": 45, "unit": "%"},
      {"measurement": "% visual injury", "setting": "[4]; Mesosulfuron 3 g/ha", "value": 15, "unit": "%"},
      {"measurement": "% visual injury, Obs", "setting": "[8]; Mesosulfuron 9 g/ha", "value": 100, "unit": "%"},
      {"measurement": "% visual injury", "setting": "[8]; Mesosulfuron 3 g/ha", "value": 78, "unit": "%"},
      {"measurement": "% visual injury", "setting": "[5]; Mesosulfuron 3 g/ha", "value": 15, "unit": "%"},
      {"measurement": "% visual injury", "setting": "[9]; Mesosulfuron 3 g/ha", "value": 20, "unit": "%"},
      {"measurement": "Obs % visual injury", "setting": "[9]; POLCO, Mesosulfuron 3 g/ha", "value": 3, "unit": "%"},
      {"measurement": "% visual injury, Obs", "setting": "[9]; POLCO, Mesosulfuron 9 g/ha", "value": 28, "unit": "%"}
    ]}
  ]
}
